# In patent US20110028422A1 (priority 2007, published 2011):
# Experiments:
# [1] = system: CLL lymphocytes; test: MTT cytotoxic assay, CLB sensitization (Example I); assay type: cell-based, human; conditions: MTT 72 h
# Procedure: Aliquots containing 1×10^6 cells/ml are sent for T-lymphocyte analysis. The percentage of contaminating T lymphocytes is determined using fluorescence-activated cell sorting analysis with CD3 antibody. […] A-2) Plating Efficiency and Dosing. […] Only dose responses with linear plating efficiencies are analyzed. […] A-3) Cytotoxic Assay. […] The percentage of surviving cells after treatment respect to vehicle treated cells (control) is calculated as (OD treated cells/OD untreated cells)×100. […] A-4) Statistical Analysis Differences between mean values is assessed by two tailed t-test. Correlation and linear regression analysis are performed using the EXCEL Statistical Tool Package.
# [2] = system: H2AX; test: CLB-induced H2AX; assay type: cell-based
# [3] = system: NFκB pathway; test: NFκB pathway regulation; assay type: cell-based; conditions: c-abl inhibition; B-CLL lymphocytes
compound,measurement,setting,value
"Cc1cn(-c2cc(NC(=O)c3ccc(C)c(Nc4nccc(-c5cccnc5)n4)c3)cc(C(F)(F)F)c2)cn1 [Nilotinib, 4-methyl-3-[[4-(3-pyridinyl)-2-pyrimidinyl]amino]-N-[5-(4-methyl-1H-imidazol-1-yl)-3-(trifluoromethyl)phenyl]benzamide]",samples in which potency in sensitizing CLL lymphocytes towards chlorambucil was greater than imatinib,[1],16/19
same,CLB-induced □ H2AX,[2],increased
same,NFκB pathway,[3],down regulation
